Reference: ChEMBL document CHEMBL4425184, “C15-methoxyphenylated 18-deoxy-herbimycin A analogues, their in vitro anticancer activity and heat shock protein 90 binding affinity” (Bioorg Med Chem Lett, 2016)

Legend:
HCT-116 = assay: Antiproliferative activity against human HCT116 assessed as reduction in cell viability measured after 96 hrs by MTT assay; type: functional, cell-based; conditions: HCT-116, 96 h
[1] = molecular target: T1, Heat shock protein HSP 90-alpha (Homo sapiens, UniProt P07900); assay: Displacement of fluorescent labelled-VER00051001 from N-terminal ATP-binding site of human recombinant HSP90A expressed in Escherichia coli measured after 29 hrs by fluorescence polarization assay
BGC-823 = assay: Antiproliferative activity against human BGC823 assessed as reduction in cell viability measured after 96 hrs by MTT assay; type: functional, cell-based; conditions: BGC-823, 96 h
SW1990 = assay: Antiproliferative activity against human SW1990 assessed as reduction in cell viability measured after 96 hrs by MTT assay; type: functional, cell-based; conditions: SW1990, 96 h
[2] = molecular target: T1, Heat shock protein HSP 90-alpha; assay: Displacement of fluorescent labelled-VER00051001 from N-terminal ATP-binding site of human recombinant HSP90A expressed in Escherichia coli measured after 44 hrs by fluorescence polarization assay
[3] = molecular target: T1, Heat shock protein HSP 90-alpha; assay: Displacement of fluorescent labelled-VER00051001 from N-terminal ATP-binding site of human recombinant HSP90A expressed in Escherichia coli measured after 20 hrs by fluorescence polarization assay
A2780 = assay: Antiproliferative activity against human A2780 assessed as reduction in cell viability measured after 96 hrs by MTT assay; type: functional, cell-based; conditions: A2780, 96 h
A-375 = assay: Antiproliferative activity against human A375 assessed as reduction in cell viability measured after 96 hrs by MTT assay; type: functional, cell-based; conditions: A-375, 96 h
MCF7 = assay: Antiproliferative activity against human MCF7 assessed as reduction in cell viability measured after 96 hrs by MTT assay; type: functional, cell-based; conditions: MCF7, 96 h
[4] = molecular target: T1, Heat shock protein HSP 90-alpha; assay: Displacement of fluorescent labelled-VER00051001 from N-terminal ATP-binding site of human recombinant HSP90A expressed in Escherichia coli measured after 32 hrs by fluorescence polarization assay
[5] = molecular target: T1, Heat shock protein HSP 90-alpha; assay: Displacement of fluorescent labelled-VER00051001 from N-terminal ATP-binding site of human recombinant HSP90A expressed in Escherichia coli measured after 48 hrs by fluorescence polarization assay

COc1ccc([C@H]2c3cccc(c3O)NC(=O)/C(C)=C/C=C\[C@H](OC)[C@@H](OC(N)=O)/C(C)=C/[C@H](C)[C@@H](OC)[C@@H](OC)C[C@@H]2C)cc1
IC50 (HCT-116): 6340 nM
IC50 [1]: 102 nM
IC50 (BGC-823): 6470 nM
IC50 (SW1990): 3370 nM
IC50 [2]: 98.5 nM
IC50 [3]: 119 nM
IC50 (A2780): 2380 nM
IC50 (A-375): 2560 nM
IC50 (MCF7): 9580 nM
IC50 [4]: 101 nM
IC50 [5]: 97.1 nM

COc1ccc([C@H]2c3cccc(c3O)NC(=O)/C(C)=C/C=C\[C@H](OC)[C@@H](OC(N)=O)/C(C)=C/[C@H](C)[C@@H](O)[C@@H](OC)C[C@@H]2C)cc1
IC50 (HCT-116): 440 nM
IC50 [1]: 59.4 nM
IC50 (BGC-823): 630 nM
IC50 (SW1990): 800 nM
IC50 [2]: 56.7 nM
IC50 [3]: 64.5 nM
IC50 (A2780): 470 nM
IC50 (A-375): 450 nM
IC50 (MCF7): 450 nM
IC50 [4]: 55.8 nM
IC50 [5]: 53 nM

COc1ccc([C@H]2c3cccc(c3O)NC(=O)/C(C)=C/CC[C@H](OC)[C@@H](OC(N)=O)/C(C)=C/[C@H](C)[C@@H](OC)[C@@H](OC)C[C@@H]2C)cc1
IC50 (HCT-116): > 20000 nM
IC50 [1]: > 1000 nM
IC50 (BGC-823): > 20000 nM
IC50 (SW1990): > 20000 nM
IC50 [2]: > 1000 nM
IC50 [3]: > 1000 nM
IC50 (A2780): > 20000 nM
IC50 (A-375): > 20000 nM
IC50 (MCF7): > 20000 nM
IC50 [4]: > 1000 nM
IC50 [5]: > 1000 nM

COc1ccc([C@H]2c3cccc(c3O)NC(=O)/C(C)=C/CC[C@H](OC)[C@@H](OC(N)=O)/C(C)=C/[C@H](C)[C@@H](O)[C@@H](OC)C[C@@H]2C)cc1
IC50 (HCT-116): > 20000 nM
IC50 [1]: > 1000 nM
IC50 (BGC-823): > 20000 nM
IC50 (SW1990): > 20000 nM
IC50 [2]: > 1000 nM
IC50 [3]: > 1000 nM
IC50 (A2780): > 20000 nM
IC50 (A-375): > 20000 nM
IC50 (MCF7): > 20000 nM
IC50 [4]: > 1000 nM
IC50 [5]: > 1000 nM

CO[C@H]1/C=C\C=C(/C)C(=O)NC2=CC(=O)C=C(C2=O)[C@H](OC)[C@@H](C)C[C@H](OC)[C@H](O)[C@@H](C)/C=C(\C)[C@@H]1OC(N)=O [HERBIMYCIN C]
IC50 (HCT-116): 9390 nM
IC50 [1]: 19.7 nM
IC50 (BGC-823): 3990 nM
IC50 (SW1990): 8620 nM
IC50 [2]: 18.1 nM
IC50 [3]: 22.2 nM
IC50 (A2780): 3010 nM
IC50 (A-375): 2430 nM
IC50 (MCF7): 5070 nM
IC50 [4]: 18.4 nM
IC50 [5]: 16.8 nM
